Assay results taken from patent US20240270751A1, “Pyrazolopyridinone Compounds” (BeiGene Ltd., priority 2021, published 2024).

Assays:
DGKζ = DGKζ (Homo sapiens (Human), UniProt Q13574); test: Biochemical DGK IC50 assay, DGKζ ADP-Glo assay; conditions: 0.5 nM enzyme, 140 μM ATP, 80 μM DAG; read-out: DGKζ ADP-Glo assay IC50
Description: (§1) Enzymatic reactions of DGKζ, DGKα and DGKδ were performed using ADP-Glo assay with lipid micelle substrate. […] Full length DGKα (D21-10BG, SignalChem) and full length DGKδ (D23-10G, SignalChem) were purchased. Lipid micelle was prepared by dissolving DAG (Sigma, 317505-10MG) and PS (Sigma, P7769-100MG) with chloroform which was furtherly removed by rotary evaporation. The resulted product was resuspended in buffer containing 25 mM HEPES pH 7.0, 0.5 mM EDTA and 160 mM Octyl β-D glucopyranoside by vigorous mixing and ultrasonic (IID, Scientz).
(§2) The ranges of compounds final concentration were 1.55˜10000 nM or 23.3˜150000 nM. 3 μL 2× enzyme solution was added to wells.
Human His-TEV-DGK-zeta-pFastBac1 and human baculovirus samples was generated using the Bac-to-Bac baculovirus expression system (Invitrogen) according to the manufacturer's protocol. The DNA used for expression of DGK-zeta, have SEQ ID Nos: 1. Baculovirus amplification was achieved using infected SF9 cells at 1:2000 virus/cells ratios, and grown for 96 hours at 27° C. post-transfected.
The expression scaled up for each protein was carried out in the […] from CORNING. 4 L of 3×10^6 cells/mL Sf9 cells (Expression System, Invitrogen) grown in SF900™ II SFM insect medium (Expression System) was infected with virus stock at 1:200 virus/cells ratio, and grown for 48 hours at 27° C. post-transfection. The infected cell culture was harvested by centrifugation at 6000 rpm for 15 min 4° C. in a SORVALL LYNX6000 centrifuge. The cell pellets were stored at −80° C.
Full length human DGKζ produced as described above, was purified from Sf9 baculovirus-infected insect cell paste. The cells were lysed using sonication method, and the lysates were clarified by centrifugation.

DGKα = DGKα (Homo sapiens (Human), UniProt P23743); test: Biochemical DGK IC50 assay, DGKα ADP-Glo assay; conditions: 7.5 nM enzyme, 140 μM ATP, 80 μM DAG
Sequence of DGKα (P23743 whole entry): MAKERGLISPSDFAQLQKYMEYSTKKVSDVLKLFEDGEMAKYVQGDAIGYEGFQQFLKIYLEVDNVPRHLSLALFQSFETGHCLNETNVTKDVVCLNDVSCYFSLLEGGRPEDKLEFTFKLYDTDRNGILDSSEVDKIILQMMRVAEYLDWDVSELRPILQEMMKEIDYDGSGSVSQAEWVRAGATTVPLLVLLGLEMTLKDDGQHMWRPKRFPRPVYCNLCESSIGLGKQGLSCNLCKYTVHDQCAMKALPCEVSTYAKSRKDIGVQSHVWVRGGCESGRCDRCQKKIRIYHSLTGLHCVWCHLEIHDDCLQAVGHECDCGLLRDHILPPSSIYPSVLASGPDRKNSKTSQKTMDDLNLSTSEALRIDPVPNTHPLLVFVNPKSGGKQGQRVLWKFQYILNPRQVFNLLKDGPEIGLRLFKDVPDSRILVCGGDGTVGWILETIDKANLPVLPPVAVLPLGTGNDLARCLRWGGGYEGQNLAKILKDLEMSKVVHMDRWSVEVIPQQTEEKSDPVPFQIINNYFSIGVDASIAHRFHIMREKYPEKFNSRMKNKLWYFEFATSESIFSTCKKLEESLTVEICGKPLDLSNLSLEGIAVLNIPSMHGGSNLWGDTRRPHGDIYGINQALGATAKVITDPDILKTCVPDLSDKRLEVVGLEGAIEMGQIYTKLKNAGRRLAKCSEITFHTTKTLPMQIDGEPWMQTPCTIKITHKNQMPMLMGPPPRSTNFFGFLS
Description: as §1, §2

Sequence of DGKζ (Q13574 other isoform, or with tags, fused parts or gaps): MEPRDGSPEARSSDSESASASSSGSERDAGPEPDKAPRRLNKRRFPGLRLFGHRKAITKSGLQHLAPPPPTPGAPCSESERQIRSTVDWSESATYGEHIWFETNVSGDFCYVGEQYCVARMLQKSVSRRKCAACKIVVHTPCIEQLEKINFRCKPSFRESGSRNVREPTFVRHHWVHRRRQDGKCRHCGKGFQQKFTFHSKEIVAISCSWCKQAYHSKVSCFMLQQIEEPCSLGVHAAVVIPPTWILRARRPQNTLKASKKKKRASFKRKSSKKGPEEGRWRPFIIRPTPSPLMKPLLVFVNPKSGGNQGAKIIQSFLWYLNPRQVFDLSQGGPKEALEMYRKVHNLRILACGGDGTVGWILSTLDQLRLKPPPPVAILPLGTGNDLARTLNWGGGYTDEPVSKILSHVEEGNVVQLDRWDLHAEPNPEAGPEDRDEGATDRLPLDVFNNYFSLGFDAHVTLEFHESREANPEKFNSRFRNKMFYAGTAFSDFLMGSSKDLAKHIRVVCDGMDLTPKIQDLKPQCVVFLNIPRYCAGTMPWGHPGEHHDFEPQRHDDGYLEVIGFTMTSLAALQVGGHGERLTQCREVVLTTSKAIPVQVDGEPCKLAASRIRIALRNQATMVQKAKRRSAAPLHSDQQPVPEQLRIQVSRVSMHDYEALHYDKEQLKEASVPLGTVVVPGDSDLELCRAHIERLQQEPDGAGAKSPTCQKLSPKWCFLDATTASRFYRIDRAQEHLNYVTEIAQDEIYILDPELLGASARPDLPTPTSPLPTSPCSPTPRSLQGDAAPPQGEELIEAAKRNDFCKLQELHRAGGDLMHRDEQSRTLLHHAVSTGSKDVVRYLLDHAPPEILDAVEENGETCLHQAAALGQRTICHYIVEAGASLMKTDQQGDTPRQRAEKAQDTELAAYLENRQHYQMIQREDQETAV

| Structure (SMILES) | IC50 (DGKζ) | IC50 (DGKα) |
| --- | --- | --- |
| CC[C@H]1CN(C(C)c2ccc3nccnc3c2)[C@H](CC)CN1c1cc(=O)n(C)c2cn(CC#N)nc12 (mixture of isomers) [Compound A28, 2-(7-((2S,5R)-2,5-diethyl-4-(1-(quinoxalin-6-yl)ethyl)piperazin-1-yl)-4-methyl-5-oxo-4,5-dihydro-2H-pyrazolo[4,3-b]pyridin-2-yl)acetonitrile] | 6.7 nM | 310 nM |
| Cc1nc2ccc(C(C)N3C[C@H](C)N(c4cc(=O)n(C)c5cn(CC#N)nc45)C[C@H]3C)cn2n1 (mixture of isomers) [Compound A321] | – | > 150000 nM |
| CC(c1ccc2nccnc2c1)N1C[C@H](C)N(c2cc(=O)n(C)c3cn(CC#N)nc23)C[C@H]1C (mixture of isomers) [Compound A2, 2-(7-((2S,5R)-2,5-dimethyl-4-(1-(quinoxalin-6-yl)ethyl)piperazin-1-yl)-4-methyl-5-oxo-4,5-dihydro-2H-pyrazolo[4,3-b]pyridin-2-yl)acetonitrile] | 71 nM | 7700 nM |
| CC#CCn1cc2c(n1)c(N1C[C@@H](C)N(C(C)c3ccc4nccnc4c3)C[C@@H]1C)cc(=O)n2C (mixture of isomers) [Compound A22, 2-(but-2-yn-1-yl)-7-((2S,5R)-2,5-dimethyl-4-(1-(quinoxalin-6-yl)ethyl)piperazin-1-yl)-4-methyl-2,4-dihydro-5H-pyrazolo[4,3-b]pyridin-5-one] | 94 nM | 200 nM |
| CC[C@@H]1CN(c2cc(=O)n(C)c3cn(CC#N)nc23)[C@@H](C)CN1C(C)c1ccc2nccnc2c1 (mixture of isomers) [Compound A97, 2-(7-((2S,5R)-5-ethyl-2-methyl-4-(1-(quinoxalin-6-yl)ethyl)piperazin-1-yl)-4-methyl-5-oxo-4,5-dihydro-2H-pyrazolo[4,3-b]pyridin-2-yl)acetonitrile] | 1 nM | 999 nM |
| CC[C@H]1CN(C(C)c2ccc3nccnc3c2)[C@H](CC)CN1c1cc(=O)n(C)c2cn(CC#N)nc12 (single isomer, unassigned) [Compound A28a] | 7.6 nM | 490 nM |
| CC[C@H]1CN(C(C)c2ccc3nccnc3c2)[C@H](CC)CN1c1cc(=O)n(C)c2cn(CC#N)nc12 (single isomer, unassigned) [Compound A28b] | 463 nM | 983 nM |
| COCc1cc(F)ccc1C(C)N1C[C@H](C)N(c2cc(=O)n(C)c3cn(CC#N)nc23)C[C@H]1C (single isomer, unassigned) [Compound A29b] | 57 nM | 4060 nM |
| CC(c1ccc2c(c1)OCCO2)N1C[C@H](C)N(c2cc(=O)n(C)c3cn(CC#N)nc23)C[C@H]1C (single isomer, unassigned) [Compound A43a] | 5080 nM | 37700 nM |
| CC(c1ccc2c(c1)OCCO2)N1C[C@H](C)N(c2cc(=O)n(C)c3cn(CC#N)nc23)C[C@H]1C (single isomer, unassigned) [Compound A43b] | 50 nM | 6570 nM |
| CC(c1ccc2c(c1)OC(C)(C)CO2)N1C[C@H](C)N(c2cc(=O)n(C)c3cn(CC#N)nc23)C[C@H]1C (single isomer, unassigned) [Compound A46f] | 2140 nM | 59600 nM |
| CC[C@H]1CN(C(C)c2ccc(C(F)(F)F)cc2F)[C@H](CC)CN1c1cc(=O)n(C)c2cn(CC#N)nc12 (single isomer, unassigned) [Compound A69a] | 25 nM | 130 nM |
| CC[C@H]1CN(C(C)c2ccc(C(F)(F)F)cc2F)[C@H](CC)CN1c1cc(=O)n(C)c2cn(CC#N)nc12 (single isomer, unassigned) [Compound A69b] | 4900 nM | 3000 nM |
| CC[C@H]1CN(C(C)c2ccc(F)cc2OC)[C@H](CC)CN1c1cc(=O)n(C)c2cn(CC#N)nc12 (single isomer, unassigned) [Compound A71a] | 2100 nM | 42000 nM |
| CC[C@H]1CN(C(C)c2ccc(F)cc2OC)[C@H](CC)CN1c1cc(=O)n(C)c2cn(CC#N)nc12 (single isomer, unassigned) [Compound A71b] | 130 nM | 40000 nM |
| CC[C@H]1CN(C(C)c2ccc(F)cn2)[C@H](CC)CN1c1cc(=O)n(C)c2cn(CC#N)nc12 (single isomer, unassigned) [Compound A74a] | 224 nM | 2.2 nM |
| CC[C@H]1CN(C(C)c2ccc(F)cn2)[C@H](CC)CN1c1cc(=O)n(C)c2cn(CC#N)nc12 (single isomer, unassigned) [Compound A74b] | 5450 nM | 187 nM |
| CC[C@H]1CN([C@H](C)c2ncccc2OC)[C@H](CC)CN1c1cc(=O)n(C)c2cn(CC#N)nc12 (single isomer, unassigned) [Compound A92b] | – | > 10000 nM |
| COc1cc(F)ccc1C(C)N1C[C@H](C)N(c2cc(=O)n(C)c3cn(CC#N)nc23)C[C@H]1C (stereo partly drawn) [Compound A248, 2-(7-((2S,5R)-4-(1-(2-omethoxy-4-fluorophenyl)ethyl)-2,5-dimethylpiperazin-1-yl)-4-methyl-5-oxo-4,5-dihydro-2H-pyrazolo[4,3-b]pyridin-2-yl)acetonitrile] | – | > 10000 nM |

The next lines start with the values.

| IC50 (DGKζ) | IC50 (DGKα) | Structure (SMILES) |
| --- | --- | --- |
| 763 nM | 3660 nM | Cc1cc2cc(C(C)N3C[C@H](C)N(c4cc(=O)n(C)c5cn(CC#N)nc45)C[C@H]3C)ccc2cn1 (mixture of isomers) [Compound A304, 2-(7-((2S,5R)-2,5-dimethyl-4-(1-(3-methylisoquinolin-6-yl)ethyl)piperazin-1-yl)-4-methyl-5-oxo-4,5-dihydro-2H-pyrazolo[4,3-b]pyridin-2-yl)acetonitrile] |
| 107 nM | 208 nM | CC[C@H]1CN(C(C)c2ccc(C(F)(F)F)cc2)[C@H](CC)CN1c1cc(=O)n(C)c2cn(CC#N)nc12 (mixture of isomers) [Compound A103, 2-(7-((2S,5R)-2,5-diethyl-4-(1-(4-(trifluoromethyl)phenyl)ethyl)piperazin-1-yl)-4-methyl-5-oxo-4,5-dihydro-2H-pyrazolo[4,3-b]pyridin-2-yl)acetonitrile] |
| 8.6 nM | 3380 nM | CC[C@@H]1CN(c2cc(=O)n(C)c3cn(CC#N)nc23)[C@@H](C)CN1C(C)c1ccc2nccnc2c1 (single isomer, unassigned) [Compound A97a] |
| 1610 nM | 5120 nM | CC[C@@H]1CN(c2cc(=O)n(C)c3cn(CC#N)nc23)[C@@H](C)CN1C(C)c1ccc2nccnc2c1 (single isomer, unassigned) [Compound A97b] |
| 15 nM | 1060 nM | CC[C@H]1CN(C(C)c2ccc3nccnc3c2)[C@H](C)CN1c1cc(=O)n(C)c2cn(CC#N)nc12 (single isomer, unassigned) [Compound A98a] |
| 1760 nM | > 10000 nM | CC[C@H]1CN(C(C)c2ccc3nccnc3c2)[C@H](C)CN1c1cc(=O)n(C)c2cn(CC#N)nc12 (single isomer, unassigned) [Compound A98b] |
| 241 nM | 403 nM | CC[C@H]1CN(C(C)c2ccc(C(F)(F)F)cc2)[C@H](CC)CN1c1cc(=O)n(C)c2cn(CC#N)nc12 (single isomer, unassigned) [Compound A103a] |
| 2690 nM | 809 nM | CC[C@H]1CN(C(C)c2ccc(C(F)(F)F)cc2)[C@H](CC)CN1c1cc(=O)n(C)c2cn(CC#N)nc12 (single isomer, unassigned) [Compound A103b] |
| 2190 nM | > 10000 nM | CC[C@H]1CN(C(C)c2ccccc2OC)[C@H](CC)CN1c1cc(=O)n(C)c2cn(CC#N)nc12 (single isomer, unassigned) [Compound A106a] |
| 183 nM | > 10000 nM | CC[C@H]1CN(C(C)c2ccccc2OC)[C@H](CC)CN1c1cc(=O)n(C)c2cn(CC#N)nc12 (single isomer, unassigned) [Compound A106b] |
| > 10000 nM | > 10000 nM | CC[C@H]1CN(C(C)c2ccc(C)cc2C(F)(F)F)[C@H](CC)CN1c1cc(=O)n(C)c2cn(CC#N)nc12 (single isomer, unassigned) [Compound A115a] |
| 378 nM | 105000 nM | CC[C@H]1CN(C(C)c2ccc(C)cc2C(F)(F)F)[C@H](CC)CN1c1cc(=O)n(C)c2cn(CC#N)nc12 (single isomer, unassigned) [Compound A115b] |
| 15 nM | 8090 nM | CC[C@H]1CN(C(C)c2cnn(CC)c2C(F)(F)F)[C@H](CC)CN1c1cc(=O)n(C)c2cn(CC#N)nc12 (single isomer, unassigned) [Compound A119a] |
| – | > 10000 nM | CC[C@H]1CN([C@H](C)c2ccc3nccnc3c2)[C@H](CC)CN1c1cc(=O)n(C(C)C)c2cn(CC#N)nc12 (single isomer, unassigned) [Compound A190b] |
| – | > 10000 nM | CC[C@H]1CN([C@H](C)c2nc(Cl)cn2CC)[C@H](CC)CN1c1cc(=O)n(C)c2cn(CC#N)nc12 (single isomer, unassigned) [Compound A191b] |
